Source: patent publication US12077531B2, “Imidazopyridinone compound” (KISSEI PHARMACEUTICAL CO., LTD., priority 2018, dated 2024)
Structures can show the parent of a compound that is named as a salt.

Biological target: human PHD2184-418 (Homo sapiens (Human), UniProt Q9GZT9)
Assay: PHD2 inhibitory test (fluorescence polarization, binding between PHD2 and HIF-1α)
Settings: human PHD2184-418, FITC-labeled HIF-1α556-574, 2 μM 2-oxoglutarate, 37° C. 60 minutes
Method: Test Example 1 PHD2 Inhibitory Test
(1) Expression and Preparation of Human PHD2184-418
Human PHD2184-418 containing amino acid residues 184 to 418 of the protein represented by CAC42509 (GenBank accession ID) was expressed and prepared by the following method.
An expression construct of human PHD2184-418 containing N-terminal histidine tag was introduced into pET-30a (+) vector, and the sequence was confirmed. This vector was introduced into BL21 (DE3) strain and cultured at 37° C. in LB medium containing antibiotics. After culturing, a cell lysis solution was added to the cells, and then the cells were disrupted by sonication. The disrupted suspension was centrifuged and the supernatant was purified by Ni column to give human PHD2184-418.
Human HIF-1α556-574 (FITC-labeled HIF-1α556-574), containing N-terminal FITC-Ahx, containing amino acid residues 556 to 574 (partial peptide) of HIF-1α was used as a substrate. Using FITC-labeled HIF-1α556-574, the competitive inhibition between 2-oxoglutarate and test compounds (PHD inhibitor) was evaluated based on the change in fluorescence polarization by the following method.
An enzyme (human PHD2184-418) and the substrate were diluted with an assay buffer (pH 7.4) containing 10 mM HEPES, 150 mM NaCl, 10 μM MnCl2-4H2O, 2 μM 2-oxoglutarate and 0.05% Tween-20. Test compounds were diluted with DMSO. Test compounds and human PHD2184-418 was added to the 384-well plate (Corning, black, opaque bottom) in advance. The reaction was started by the addition of FITC-labeled HIF-1α556-574. After incubating at 37° C. for 60 minutes, fluorescence polarization (excitation wavelength: 470 nm, fluorescence wavelength: 530 nm) was measured by PHERAstar FSX (BMG Labtech). Fluorescence polarization of each well was measured, and human PHD2 binding inhibitory activity of test compounds was calculated based on the value of test compound-free group.

Chain of human PHD2184-418 (Q9GZT9 184-418): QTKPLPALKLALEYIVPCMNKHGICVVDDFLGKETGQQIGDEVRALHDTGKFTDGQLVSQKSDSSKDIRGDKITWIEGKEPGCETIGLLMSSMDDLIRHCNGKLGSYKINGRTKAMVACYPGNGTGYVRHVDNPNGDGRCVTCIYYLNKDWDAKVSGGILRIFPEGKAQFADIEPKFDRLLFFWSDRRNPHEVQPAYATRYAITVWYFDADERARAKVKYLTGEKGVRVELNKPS

IC50 [nM] | Structure (SMILES)
5700 | Cc1cccnc1CN1CC[C@H](n2c(=O)n(-c3ccc(-c4ccc(C#N)cc4)cc3)c3cccnc32)C1 [Example 34, (S)-4′-(3-(1-((3-Methylpyridin-2-yl)methyl)pyrrolidin-3-yl)-2-oxo-2,3-dihydro-1H-imidazo[4,5-b]pyridin-1-yl)-[1,1′-biphenyl]-4-carbonitrile]
80500 | Cc1cccnc1CN1CC[C@H](n2c(=O)n(-c3ccc(-c4ccc(OC(F)(F)F)cc4)cc3)c3cccnc32)C1 [Example 35, (S)-3-(1-((3-Methylpyridin-2-yl)methyl)pyrrolidin-3-yl)-1-(4′-(trifluoromethoxy)-[1,1′-biphenyl]-4-yl)-1,3-dihydro-2H-imidazo[4,5-b]pyridin-2-one]
1510 | Cn1ccnc1CN1CC[C@H](n2c(=O)n(-c3ccc(-c4ccncc4)cc3)c3cccnc32)C1 [Example 36, (S)-3-(1-((1-Methyl-1H-imidazol-2-yl)methyl)pyrrolidin-3-yl)-1-(4-(pyridin-4-yl)phenyl)-1,3-dihydro-2H-imidazo[4,5-b]pyridin-2-one hydrochloride]
6280 | COC(=O)c1ccc(-c2ccc(-n3c(=O)n([C@H]4CCN(Cc5nccn5C)C4)c4ncccc43)cc2)cc1 [Example 37, Methyl (S)-4′-(3-(1-((1-methyl-1H-imidazol-2-yl)methyl)pyrrolidin-3-yl)-2-oxo-2,3-dihydro-1H-imidazo[4,5-b]pyridin-1-yl)-[1,1′-biphenyl]-4-carboxylate]
4630 | COC(=O)c1ccc(-c2ccc(-n3c(=O)n([C@@H]4CCN(Cc5nccn5C)C4)c4ncccc43)c(C)c2)cc1 [Example 38, Methyl (R)-3′-methyl-4′-(3-(1-((1-methyl-1H-imidazol-2-yl)methyl)pyrrolidin-3-yl)-2-oxo-2,3-dihydro-1H-imidazo[4,5-b]pyridin-1-yl)-[1,1′-biphenyl]-4-carboxylate]
320 | Cn1ccnc1CN1CC[C@H](n2c(=O)n(-c3ccc(-c4ccc(O)c(C(=O)O)c4)cc3)c3cccnc32)C1 [Example 42, (S)-4-Hydroxy-4′-(3-(1-((1-methyl-1H-imidazol-2-yl)methyl)pyrrolidin-3-yl)-2-oxo-2,3-dihydro-1H-imidazo[4,5-b]pyridin-1-yl)-[1,1′-biphenyl]-3-carboxylic acid]
970 | Cn1ccnc1CN1CC[C@H](n2c(=O)n(-c3ccc(-c4ccc(C(=O)O)cc4O)cc3)c3cccnc32)C1 [Example 44, (S)-2-Hydroxy-4′-(3-(1-((1-methyl-1H-imidazol-2-yl)methyl)pyrrolidin-3-yl)-2-oxo-2,3-dihydro-1H-imidazo[4,5-b]pyridin-1-yl)-[1,1′-biphenyl]-4-carboxylic acid]
350 | Cc1cc(-c2ccc(C(=O)O)cc2)ccc1-n1c(=O)n([C@@H]2CCN(Cc3nccn3C)C2)c2ncccc21 [Example 48, (R)-3′-Methyl-4′-(3-(1-((1-methyl-1H-imidazol-2-yl)methyl)pyrrolidin-3-yl)-2-oxo-2,3-dihydro-1H-imidazo[4,5-b]pyridin-1-yl)-[1,1′-biphenyl]-4-carboxylic acid]
140 | Cc1cc(C(=O)O)ccc1-c1ccc(-n2c(=O)n([C@H]3CCN(Cc4ncc(C(=O)O)n4C)C3)c3ncccc32)cn1 [Example 50, (S)-2-((3-(1-(6-(4-Carboxy-2-methylphenyl)pyridin-3-yl)-2-oxo-1,2-dihydro-3H-imidazo[4,5-b]pyridin-3-yl)pyrrolidin-1-yl)methyl)-1-methyl-1H-imidazole-5-carboxylic acid]
140 | O=C(O)c1ccnc(CN2CC[C@H](n3c(=O)n(-c4ccc(-c5ccc(O)c(C(=O)O)c5)c(O)c4)c4cccnc43)C2)c1 [Example 51, (S)-2-((3-(1-(3′-Carboxy-2,4′-dihydroxy-[1,1′-biphenyl]-4-yl)-2-oxo-1,2-dihydro-3H-imidazo[4,5-b]pyridin-3-yl)pyrrolidin-1-yl)methyl)isonicotinic acid]
280 | O=C(O)c1ccnc(CN2CC[C@H](n3c(=O)n(-c4ccc(-c5ccc(O)c(C(=O)O)c5)nc4)c4cccnc43)C2)c1 [Example 52, (S)-2-((3-(1-(6-(3-Carboxy-4-hydroxyphenyl)pyridin-3-yl)-2-oxo-1,2-dihydro-3H-imidazo[4,5-b]pyridin-3-yl)pyrrolidin-1-yl)methyl)isonicotinic acid]
140 | O=C(O)c1ccnc(CN2CC[C@H](n3c(=O)n(-c4ccc(-c5ccc(O)c(C(=O)O)c5)cc4O)c4cccnc43)C2)c1 [Example 53, (S)-2-((3-(1-(3′-Carboxy-3,4′-dihydroxy-[1,1′-biphenyl]-4-yl)-2-oxo-1,2-dihydro-3H-imidazo[4,5-b]pyridin-3-yl)pyrrolidin-1-yl)methyl)isonicotinic acid]
770 | Cn1c(C(=O)O)cnc1CN1CC[C@H](n2c(=O)n(-c3cccc(-c4ccccc4)c3)c3cccnc32)C1 [Example 54, (S)-2-((3-(1-([1,1′-Biphenyl]-3-yl)-2-oxo-1,2-dihydro-3H-imidazo[4,5-b]pyridin-3-yl)pyrrolidin-1-yl)methyl)-1-methyl-1H-imidazole-5-carboxylic acid]
490 | CN(C)c1ccc(-n2c(=O)n([C@H]3CCN(Cc4ncc(C(=O)O)n4C)C3)c3ncccc32)cc1 [Example 55, (S)-2-((3-(1-(4-(Dimethylamino)phenyl)-2-oxo-1,2-dihydro-3H-imidazo[4,5-b]pyridin-3-yl)pyrrolidin-1-yl)methyl)-1-methyl-1H-imidazole-5-carboxylic acid]
410 | Cn1c(C(=O)O)cnc1CN1CC[C@H](n2c(=O)n(-c3ccc(Oc4ccccc4)cc3)c3cccnc32)C1 [Example 56, (S)-1-Methyl-2-((3-(2-oxo-1-(4-phenoxyphenyl)-1,2-dihydro-3H-imidazo[4,5-b]pyridin-3-yl)pyrrolidin-1-yl)methyl)-1H-imidazole-5-carboxylic acid]
710 | Cn1c(C(=O)O)cnc1CN1CC[C@H](n2c(=O)n(-c3ccc(Cc4ccccc4)cc3)c3cccnc32)C1 [Example 57, (S)-2-((3-(1-(4-Benzylphenyl)-2-oxo-1,2-dihydro-3H-imidazo[4,5-b]pyridin-3-yl)pyrrolidin-1-yl)methyl)-1-methyl-1H-imidazole-5-carboxylic acid]
1020 | Cc1ccc(-n2c(=O)n([C@H]3CCN(Cc4ncc(C(=O)O)n4C)C3)c3ncccc32)cc1 [Example 58, (S)-1-Methyl-2-((3-(2-oxo-1-(p-tolyl)-1,2-dihydro-3H-imidazo[4,5-b]pyridin-3-yl)pyrrolidin-1-yl)methyl)-1H-imidazole-5-carboxylic acid]
180 | Cn1c(C(=O)O)cnc1CN1CC[C@H](n2c(=O)n(-c3ccc(Cl)cc3)c3cccnc32)C1 [Example 59, (S)-2-((3-(1-(4-Chlorophenyl)-2-oxo-1,2-dihydro-3H-imidazo[4,5-b]pyridin-3-yl)pyrrolidin-1-yl)methyl)-1-methyl-1H-imidazole-5-carboxylic acid]
590 | CSc1ccc(-n2c(=O)n([C@H]3CCN(Cc4ncc(C(=O)O)n4C)C3)c3ncccc32)cc1 [Example 60, (S)-1-Methyl-2-((3-(1-(4-(methylthio)phenyl)-2-oxo-1,2-dihydro-3H-imidazo[4,5-b]pyridin-3-yl)pyrrolidin-1-yl)methyl)-1H-imidazole-5-carboxylic acid]
1850 | Cn1c(C(=O)O)cnc1CN1CC[C@H](n2c(=O)n(-c3ccc(OC(F)(F)F)cc3)c3cccnc32)C1 [Example 62, (S)-1-Methyl-2-((3-(2-oxo-1-(4-(trifluoromethoxy)phenyl)-1,2-dihydro-3H-imidazo[4,5-b]pyridin-3-yl)pyrrolidin-1-yl)methyl)-1H-imidazole-5-carboxylic acid]
1920 | Cn1c(C(=O)O)cnc1CN1CC[C@H](n2c(=O)n(-c3ccc(C(F)(F)F)cc3)c3cccnc32)C1 [Example 63, (S)-1-Methyl-2-((3-(2-oxo-1-(4-(trifluoromethyl)phenyl)-1,2-dihydro-3H-imidazo[4,5-b]pyridin-3-yl)pyrrolidin-1-yl)methyl)-1H-imidazole-5-carboxylic acid]
7890 | Cn1c(C(=O)O)cnc1CN1CC[C@H](n2c(=O)n(-c3ccc(C#N)cc3)c3cccnc32)C1 [Example 64, (S)-2-((3-(1-(4-Cyanophenyl)-2-oxo-1,2-dihydro-3H-imidazo[4,5-b]pyridin-3-yl)pyrrolidin-1-yl)methyl)-1-methyl-1H-imidazole-5-carboxylic acid]
2400 | Cn1c(C(=O)O)cnc1CN1CC[C@H](n2c(=O)n(-c3ccc([N+](=O)[O-])cc3)c3cccnc32)C1 [Example 65, (S)-1-Methyl-2-((3-(1-(4-nitrophenyl)-2-oxo-1,2-dihydro-3H-imidazo[4,5-b]pyridin-3-yl)pyrrolidin-1-yl)methyl)-1H-imidazole-5-carboxylic acid]
